# Results from PubChem BioAssay (NCI).
#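 Protocol summary: plate cells (96-well), add compound at 5 concentrations, incubate 48 h, interpolate endpoints linearly. At the TGI there is no net growth.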
# What was measured:
# Test in all cases: NCI anticancer screen, dose series, 48 h
# 786-0 renal = system: 786-0 renal
# A498 renal = system: A498 renal
# A549 NSCLC = system: A549 NSCLC
# ACHN renal = system: ACHN renal
# BT-549 breast = system: BT-549 breast
# CAKI-1 renal = system: CAKI-1 renal
# CCRF-CEM leukemia = system: CCRF-CEM leukemia
# COLO 205 colon = system: COLO 205 colon
# DU-145 prostate = system: DU-145 prostate
# EKVX NSCLC = system: EKVX NSCLC
# HCT-116 colon = system: HCT-116 colon
# HCT-15 colon = system: HCT-15 colon
# HL-60(TB) leukemia = system: HL-60(TB) leukemia
# HOP-62 NSCLC = system: HOP-62 NSCLC
# HOP-92 NSCLC = system: HOP-92 NSCLC
# HS 578T breast = system: HS 578T breast
# HT29 colon = system: HT29 colon
# IGROV1 ovarian = system: IGROV1 ovarian
# K-562 leukemia = system: K-562 leukemia
# KM12 colon = system: KM12 colon
# LOX IMVI melanoma = system: LOX IMVI melanoma
# M14 melanoma = system: M14 melanoma
# MALME-3M melanoma = system: MALME-3M melanoma
# MCF7 breast = system: MCF7 breast
# MDA-MB-231 breast = system: MDA-MB-231 breast
# MDA-MB-435 = system: MDA-MB-435
# MDA-N = system: MDA-N
# MOLT-4 leukemia = system: MOLT-4 leukemia
# NCI-H23 lung = system: NCI-H23 lung
# NCI-H460 lung = system: NCI-H460 lung
# NCI-H522 lung = system: NCI-H522 lung
# NCI/ADR-RES ovarian = system: NCI/ADR-RES ovarian
# OVCAR-3 ovarian = system: OVCAR-3 ovarian
# OVCAR-4 ovarian = system: OVCAR-4 ovarian
# OVCAR-5 ovarian = system: OVCAR-5 ovarian
# OVCAR-8 ovarian = system: OVCAR-8 ovarian
# PC-3 prostate = system: PC-3 prostate
# RPMI-8226 leukemia = system: RPMI-8226 leukemia
# RXF 393 renal = system: RXF 393 renal
# SF-268 CNS = system: SF-268 CNS
# SF-295 CNS = system: SF-295 CNS
# SF-539 CNS = system: SF-539 CNS
# SK-MEL-2 melanoma = system: SK-MEL-2 melanoma
# SK-MEL-28 melanoma = system: SK-MEL-28 melanoma
# SK-MEL-5 melanoma = system: SK-MEL-5 melanoma
# SK-OV-3 ovarian = system: SK-OV-3 ovarian
# SN12C renal = system: SN12C renal
# SNB-19 CNS = system: SNB-19 CNS
# SR leukemia = system: SR leukemia
# SW-620 colon = system: SW-620 colon
# T-47D breast = system: T-47D breast
# TK-10 renal = system: TK-10 renal
# U251 CNS = system: U251 CNS
# UACC-257 melanoma = system: UACC-257 melanoma
# UACC-62 melanoma = system: UACC-62 melanoma
# UO-31 renal = system: UO-31 renal
smiles,measurement,setting,value
CN(C)CCCNC(=O)c1cc2/c(=C\c3ccc(N(C)C)cc3)c3ccccc3n2[n+]1C,TGI,786-0 renal,> 100 µM
same,TGI,A498 renal,> 100 µM
same,TGI,A549 NSCLC,> 100 µM
same,TGI,ACHN renal,> 100 µM
same,TGI,BT-549 breast,> 100 µM
same,TGI,CAKI-1 renal,> 100 µM
same,TGI,CCRF-CEM leukemia,90.1 µM
same,TGI,COLO 205 colon,21.3 µM
same,TGI,DU-145 prostate,> 100 µM
same,TGI,EKVX NSCLC,39.7 µM
same,TGI,HCT-116 colon,64.2 µM
same,TGI,HCT-15 colon,> 100 µM
same,TGI,HL-60(TB) leukemia,46 µM
same,TGI,HOP-62 NSCLC,> 100 µM
same,TGI,HOP-92 NSCLC,56.4 µM
same,TGI,HS 578T breast,> 100 µM
same,TGI,HT29 colon,82.8 µM
same,TGI,IGROV1 ovarian,37.1 µM
same,TGI,K-562 leukemia,35.4 µM
same,TGI,KM12 colon,61.6 µM
same,TGI,LOX IMVI melanoma,> 100 µM
same,TGI,M14 melanoma,39 µM
same,TGI,MALME-3M melanoma,38.4 µM
same,TGI,MCF7 breast,50.7 µM
same,TGI,MDA-MB-231 breast,64.4 µM
same,TGI,MDA-MB-435,58.7 µM
same,TGI,MDA-N,78.4 µM
same,TGI,MOLT-4 leukemia,> 100 µM
same,TGI,NCI-H23 lung,59.5 µM
same,TGI,NCI-H460 lung,> 100 µM
same,TGI,NCI-H522 lung,10.9 µM
same,TGI,NCI/ADR-RES ovarian,> 100 µM
same,TGI,OVCAR-3 ovarian,52.2 µM
same,TGI,OVCAR-4 ovarian,21.4 µM
same,TGI,OVCAR-5 ovarian,> 100 µM
same,TGI,OVCAR-8 ovarian,> 100 µM
same,TGI,PC-3 prostate,> 100 µM
same,TGI,RPMI-8226 leukemia,53.6 µM
same,TGI,RXF 393 renal,> 100 µM
same,TGI,SF-268 CNS,90.9 µM
same,TGI,SF-295 CNS,> 100 µM
same,TGI,SF-539 CNS,39.4 µM
same,TGI,SK-MEL-2 melanoma,35.6 µM
same,TGI,SK-MEL-28 melanoma,74.8 µM
same,TGI,SK-MEL-5 melanoma,31.3 µM
same,TGI,SK-OV-3 ovarian,> 100 µM
same,TGI,SN12C renal,13.5 µM
same,TGI,SNB-19 CNS,> 100 µM
same,TGI,SR leukemia,54.1 µM
same,TGI,SW-620 colon,> 100 µM
same,TGI,T-47D breast,15.9 µM
same,TGI,TK-10 renal,> 100 µM
same,TGI,U251 CNS,69.2 µM
same,TGI,UACC-257 melanoma,51.3 µM
same,TGI,UACC-62 melanoma,34 µM
same,TGI,UO-31 renal,> 100 µM
